Measured values from ChEMBL document CHEMBL5214884, “Recent research progress of Uncaria spp. based on alkaloids: phytochemistry, pharmacology and structural chemistry” (Eur J Med Chem, 2021).

Assays:
[1] = Inhibition of alpha glucosidase (unknown origin) using p-nitrophenyl alpha-D-glucoside as substrate preincubated for 60 mins followed by substrate addition measured after 30 mins by spectrophotometric analysis; parameters: species or system Homo sapiens
Mus musculus [2] = species: Mus musculus; experiment: Antiinflammatory activity against Balb/c mouse serum assessed as inhibition of IL-1alpha release measured after 2 hrs by cytokine Elisa multiplex Q-plex system method relative to control; type: functional; parameters: scale not given: the % may be the effect or the level left
Mus musculus [3] = species: Mus musculus; experiment: Antiinflammatory activity against Balb/c mouse serum assessed as inhibition of IL-1beta release measured after 2 hrs by cytokine Elisa multiplex Q-plex system method relative to control; type: functional; parameters: scale not given: the % may be the effect or the level left
Mus musculus [4] = species: Mus musculus; experiment: Antiinflammatory activity against Balb/c mouse serum assessed as inhibition of IL-17 release measured after 2 hrs by cytokine Elisa multiplex Q-plex system method relative to control; type: functional; parameters: scale not given: the % may be the effect or the level left
Mus musculus [5] = species: Mus musculus; experiment: Antiinflammatory activity against Balb/c mouse serum assessed as inhibition of TNF-alpha release measured after 2 hrs by cytokine Elisa multiplex Q-plex system method relative to control; type: functional; parameters: scale not given: the % may be the effect or the level left
Mus musculus [6] = species: Mus musculus; experiment: Antiinflammatory activity against Balb/c mouse serum assessed as reduction of IL-4 release measured after 2 hrs by cytokine Elisa multiplex Q-plex system method relative to control; type: functional; parameters: scale not given: the % may be the effect or the level left
[7] = target: T1, Melatonin receptor type 1A (Homo sapiens, UniProt P48039); experiment: Agonist activity at human MT1R stably expressed in HEK293 cells by FlexStation3 Bench-top MultiMode Microplate Reader; type: functional, cell-based
T1 sequence (P48039 whole entry): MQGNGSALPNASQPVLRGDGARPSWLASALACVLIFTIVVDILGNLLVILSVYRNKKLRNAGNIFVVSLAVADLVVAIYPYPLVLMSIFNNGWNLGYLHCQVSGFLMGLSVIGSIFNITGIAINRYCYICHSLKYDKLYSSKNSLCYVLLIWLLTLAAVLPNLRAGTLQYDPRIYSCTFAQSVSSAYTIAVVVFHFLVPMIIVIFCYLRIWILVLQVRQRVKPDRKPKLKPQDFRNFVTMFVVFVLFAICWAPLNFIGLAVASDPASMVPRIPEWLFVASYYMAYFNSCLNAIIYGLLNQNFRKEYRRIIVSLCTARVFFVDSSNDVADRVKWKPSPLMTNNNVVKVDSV

[8] = target: T2, Melatonin receptor type 1B (Homo sapiens, UniProt P49286); experiment: Agonist activity at human MT2R stably expressed in HEK293 cells by FlexStation3 Bench-top MultiMode Microplate Reader; type: functional, cell-based
T2 sequence (P49286 whole entry): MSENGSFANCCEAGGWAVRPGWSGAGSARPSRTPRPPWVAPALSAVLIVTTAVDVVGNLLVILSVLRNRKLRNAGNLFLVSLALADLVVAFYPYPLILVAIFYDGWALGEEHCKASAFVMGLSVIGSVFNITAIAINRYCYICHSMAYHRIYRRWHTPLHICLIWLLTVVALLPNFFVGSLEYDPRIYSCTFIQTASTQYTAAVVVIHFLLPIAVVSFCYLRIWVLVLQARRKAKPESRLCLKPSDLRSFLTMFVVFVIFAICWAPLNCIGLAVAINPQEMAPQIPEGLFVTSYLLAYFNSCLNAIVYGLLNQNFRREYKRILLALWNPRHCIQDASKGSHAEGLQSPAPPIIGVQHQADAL

RAW264.7 = experiment: Inhibition of LPS-induced NO release in mouse RAW264.7 cells preincubated for 2 hrs followed by LPS addition measured after 24 hrs; type: functional, cell-based
Acetylcholinesterase [9] = target: T3, Acetylcholinesterase (Homo sapiens, UniProt P22303); experiment: Inhibition of AChE (unknown origin) incubated for 20 mins by Ellman's method
T3 sequence (P22303 whole entry): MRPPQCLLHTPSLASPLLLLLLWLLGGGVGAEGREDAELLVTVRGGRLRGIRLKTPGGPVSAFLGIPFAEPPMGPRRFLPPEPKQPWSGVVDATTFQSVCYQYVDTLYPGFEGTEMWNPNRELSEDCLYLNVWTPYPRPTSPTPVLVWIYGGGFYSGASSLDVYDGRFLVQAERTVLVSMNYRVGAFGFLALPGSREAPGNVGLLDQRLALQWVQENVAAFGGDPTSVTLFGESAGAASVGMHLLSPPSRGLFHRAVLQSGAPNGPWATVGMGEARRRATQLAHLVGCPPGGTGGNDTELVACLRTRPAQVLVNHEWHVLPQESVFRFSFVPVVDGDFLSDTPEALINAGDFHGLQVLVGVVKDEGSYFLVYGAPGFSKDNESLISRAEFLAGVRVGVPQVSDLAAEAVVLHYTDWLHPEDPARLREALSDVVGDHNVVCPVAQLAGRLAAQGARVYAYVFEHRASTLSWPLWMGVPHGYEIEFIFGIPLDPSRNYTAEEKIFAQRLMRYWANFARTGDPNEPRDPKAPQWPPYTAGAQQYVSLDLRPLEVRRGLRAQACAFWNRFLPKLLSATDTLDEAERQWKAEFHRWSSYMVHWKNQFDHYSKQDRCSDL

[10] = Inhibition of alpha glucosidase (unknown origin) using p-nitrophenyl-a-D-glucopyranoside as substrate incubated for 20 mins by UV based microplate reading method; parameters: species or system Homo sapiens
[11] = Inhibition of human carboxylesterase using 4-benzoyl-N-butyl-1,8-naphthalimide as substrate by fluorescence based assay
Rattus norvegicus = experiment: Hypotensive effect against Phe-induced contraction in rat mesentric arteries assessed as relaxation effect […]; type: functional
Acetylcholinesterase [12] = target: T3, Acetylcholinesterase; experiment: Inhibition of AChE (unknown origin) using acetylcholine as substrate by BioTek Synergy HT microplate reader method
[13] = target: T1, Melatonin receptor type 1A; experiment: Agonist activity at human MT1R stably expressed in HEK293 cells at 1 mM by FlexStation3 Bench-top MultiMode Microplate Reader relative to control; type: functional, cell-based; conditions: filed as agonist
[14] = target: T4, Melatonin receptor type 1B (Homo sapiens) (UniProt P49286); experiment: Agonist activity at human MT2R stably expressed in HEK293 cells at 1 mM by FlexStation3 Bench-top MultiMode Microplate Reader relative to control; type: functional, cell-based; conditions: filed as agonist
T4 sequence (whole entry): T2 sequence (P49286 whole entry)

PC-12 [15] = experiment: Neuroprotective activity against mNGF-differentiated rat PC-12 cells assessed as inhibition of caspase 3; type: functional, cell-based
PC-12 [16] = experiment: Neuroprotective activity against mNGF-differentiated rat PC-12 cells assessed as inhibition of caspase 9; type: functional, cell-based
[17] = Inhibition of LPS-induced NO release in mouse N9 microglial cells measured after 48 hrs by Griess reaction assay; type: functional, cell-based; conditions: N9, 48 h

## COCC1=C(C)[C@H]2C3=CC[C@@H]4[C@@]5(C)CC[C@H](O)C(C)(C)[C@@H]5C(=O)C[C@@]4(C)[C@]3(C)CC[C@@]2(C(=O)O)CC1
[1]
  IC50: 49 µM

## COC(=O)C1=CO[C@@H](C)[C@H]2CN3CC[C@]4(C(=O)Nc5ccccc54)[C@@H]3CC12 (stereo partly specified)
Mus musculus [2]
  Activity: 50%
Mus musculus [3]
  Activity: 50%
Mus musculus [4]
  Activity: 50%
Mus musculus [5]
  Activity: 50%
Mus musculus [6]
  Activity: 40%

## Oc1cc(O)c2c(c1)O[C@H](c1ccc(O)c(O)c1)[C@@H](O)C2 [CIANIDANOL]
[7]
  EC50: 25.8 µM
[8]
  EC50: 47.3 µM

## C=C1CC[C@]2(C(=O)O)CC[C@]3(C)C(=CC[C@@H]4[C@@]5(C)CC[C@H](O)C(C)(C)[C@@H]5[C@H](O)C[C@]43C)[C@@H]2[C@]1(C)O
RAW264.7
  IC50: 1.48 µM

## C=C[C@H]1COC(=O)C2=CN3CCc4c([nH]c5cccc(O[C@@H]6O[C@H](CO)[C@@H](O)[C@H](O)[C@H]6O)c45)[C@@H]3C[C@H]21
Acetylcholinesterase [9]
  IC50: 21.1 µM

## O=C1CC[C@H](Cc2ccc(O)c(O)c2)O1
[10]
  IC50: 27 µM

## Cc1cc2c(cc1O)OC1(CC1)C(O)C2 (stereo unspecified)
[10]
  IC50: 15.5 µM

## C[C@H]1[C@H](C)CC[C@]2(C(=O)O)CC[C@]3(C)C(=CC[C@@H]4[C@@]5(C)CC[C@H](O)C(C)(C)[C@@H]5CC[C@]43C)[C@H]12 [URSOLIC ACID]
[11]
  IC50: 4.01 µM
[1]
  IC50: 16 µM

## CC[C@H]1CN2CCc3c([nH]c4ccccc34)[C@H]2C[C@H]1/C(=C\OC)C(=O)OC
Rattus norvegicus
  IC50: 0.18 µM

## C/C=C1\CN2CCc3c([nH]c4ccccc34)[C@@H]2C[C@@H]1/C(=C\OC)C(=O)OC
Acetylcholinesterase [12]
  IC50: 63.9 µM

## C[C@H]1[C@H](C)CC[C@]2(C(=O)O)CC[C@]3(C)C(=CC[C@@H]4[C@@]5(C)CC[C@H](O)C(C)(C)[C@@H]5[C@H](O)C[C@]43C)[C@H]12
[11]
  IC50: 4.01 µM

## C=C[C@H]1[C@H](O[C@@H]2O[C@H](CO)[C@@H](O)[C@H](O)[C@@H]2O[C@@H]2O[C@H](CO[C@@H]3O[C@H](CO)[C@@H](O)[C@H](O)[C@H]3O)[C@@H](O)[C@H](O)[C@H]2O)OC=C2C(=O)N3CCc4c([nH]c5cc(O)ccc45)[C@H]3C[C@H]21
[13]
  Activity: 79.6%
[14]
  Activity: 46.3%

## Oc1cc(O)c2c(c1)O[C@H](c1ccc(O)c(O)c1)[C@@H](O)[C@@H]2c1c(O)cc(O)c2c1O[C@H](c1ccc(O)c(O)c1)[C@@H](O)C2
[10]
  IC50: 17.3 µM

## CO[C@H]1C=C2[C@@H]3C[C@H](C)CC[C@]3(C(=O)O)CC[C@@]2(C)[C@]2(C)CC[C@H]3C(C)(C)[C@@H](O)CC[C@]3(C)[C@@H]12
[11]
  IC50: 4.01 µM

## CC1(C)CC[C@]2(C(=O)O)CC[C@]3(C)C(=CC[C@@H]4[C@@]5(C)CC[C@H](O)C(C)(C)[C@@H]5CC[C@]43C)[C@@H]2C1 [OLEANOLIC_ACID]
[11]
  IC50: 4.01 µM

## C[C@H]1[C@H](C)CC[C@]2(C(=O)O)CC[C@]3(C(=O)/C=C/c4ccc(O)cc4)C(=CC[C@@H]4[C@@]5(C)CC[C@H](O)C(C)(C)[C@@H]5CC[C@]43C)[C@H]12
RAW264.7
  IC50: 7.01 µM

## C=C[C@H]1[C@H](O[C@@H]2O[C@H](CO)[C@@H](O)[C@H](O)[C@H]2O)OC=C(C(=O)OC)[C@H]1C[C@@H]1N[C@H](C(=O)O)Cc2c1[nH]c1ccccc21
PC-12 [15]
  IC50: 25.6 µM
PC-12 [16]
  IC50: 24.5 µM

## C=C[C@@H]1C(C[C@@H]2NCCc3c2[nH]c2ccccc32)C(C(=O)OC)=CO[C@H]1O[C@@H]1O[C@H](CO)[C@@H](O)[C@H](O)[C@H]1O (stereo partly specified)
[17]
  IC50: 8.3 µM
